Test results from patent publication US6617158B1, “Method for stimulating the production of fetal hemoglobin producing erythroid cells” (New England Medical Center, priority 1999, dated 2003).

What was measured:
Format in all cases: cell-based, human
[1] = system: F+ cells (HbF-containing nucleated red cells) in cultures of mononuclear cells from adult blood; test: Erythroid culture of adult blood mononuclear cells; proportions of F+ cells by two-color flow cytometry
[2] = system: secondary erythroid colonies; test: Secondary erythroid colony counts after re-seeding (cell cycle effect); conditions: first few days of treatment
Description: Cell cultures were seeded in the presence (TGF) and absence (CON) of TGF-beta and on days 1, 2, 3 and 4 washed and re-seeded in the absence of TGF-beta. On day 9, the secondary colonies/clusters were counted and plotted as a function of the number of the day of treatment before reseeding. […] Statistics from 5 experiments are shown.
To test the cell cycle effect of TGF-beta during the first 4 days of treatment, the numbers of secondary erythroid colonies that developed upon re-seeding the cultures after different duration of TGF-beta exposure were counted (FIG. 7). A decrease in the number of secondary colonies upon re-seeding would reflect a decrease in the number of divisions undergone by colony forming cells before the cultures were re-seeded as a single-cell suspension. However, the secondary colonies became smaller and more numerous, without much effect of TGF-beta. The numbers of secondary colonies began to increase between day 1 and 2, equally in TGF-beta and controls. Between days 3 and 4 the beginnings of inhibition by TGF-beta could be seen.

[3] = system: F+ and F-A+ cells in cultures of mononuclear cells from adult blood; test: Absolute numbers of F+ and F-A+ cells per culture and long-term proliferation
Description: FIG. 5A is an example of a time course from one experiment. Cultures were treated with TGF-beta for 4 days, then propagated without TGF-beta, with further subcultivation and dilution on days 7 (1:10), 10 (1:5) and 13 (1:5). Absolute numbers of F+ and F−A+ cells per culture were determined on days 7, 10, 13 and 16. Total cell numbers were calculated using preceding culture dilution factors in the following manner: at each time of analysis, some of the cells were removed for counting, those that go back into the culture after counting are seeded with a dilution of fresh medium, to avoid medium exhaustion. Therefore, the actual numbers in the plates increase only between seeding and harvest. To calculate cell production over the whole culture time, it is necessary to multiply the counted cell numbers in the plates with all previous culture dilution factors. Closed symbols depict data from F−A+ cells, open symbols show F+ cells, and triangles show TGF-beta-treated cultures, while circles show the controls.
FIG. 5B is a graph indicating the TGF-beta-induced change of total F+ and F− cell numbers, shown as ratio of N(TGF)/N(CON). Cultures were treated with TGF-beta for 4 days., then propagated without TGF-beta, with further subcultivation and dilution on days 7 (1:10), 10 (1:5) and 13 (1:5). Absolute numbers of F+ and F−A+ cells per culture were determined on days 7, 10, 13 and 16. Individual experiments are distinguished by different symbols. […] Median values are indicated by horizontal bar.
(§1) Cells are processed in a Becton-Dickinson Vantage flow cytometer/cell sorter with dual laser excitation (UV and 488 nm). Intact nucleated cells are selected by gating on UV-excited Hoechst […] fluorescence (430 nm) which yielded DNA histograms as well as cell cycle information by BudR-induced fluorescence quenching. Bohmer, Cell Tissue Kinet. 12: 101-110 (1979). Phycoerythrin (PE) and Fluorescein isothiocyanate (FITC) are excited at 488 nm and measured at 530 nm and 575 nm, […]. Correlated fluorescence values are recorded with appropriate color compensation. The accuracy of color compensation over 4 logs of fluorescence values is limited. To obtain absolute cell counts from the relative particle counts that a flow cytometer provides, known amounts of fluorescent plastic beads (Coulter Immunobrite Level IV) are added to the cell suspensions. Bohmer, Cell Tissue Kinet. 17: 593-600 (1984).
Cultures that were treated with TGF-beta from day 0-4 were sub-cultivated again on days 7, 10 and 13, and the total numbers of F+ and F−A+ cells per culture were determined on days 7, 10, 13 and 16. […] Between day 7 and 10, both cell types in both cultures proliferated at approximately the same rate. After day 10, in control cultures, the proliferation decreased strongly and equally for both F+ and F−A+ cells, maintaining the ratio. No secondary colonies were seen following the subcultivation on day 13. In contrast, the proliferation in TGF-beta-treated cultures continued for much longer for both F+ and F−A+ cells. The F−A+ cell numbers were gradually reducing the gap with F+ cells, in agreement with the gradually decreasing proportions of F+ cells shown in FIG. 4. The number of days for which the proliferation of TGF-beta-treated cultures could be maintained was highly variable between donors and appeared to correlate with the initial numbers of clonogenic cells per ml of blood. […]

[4] = system: Mononuclear cells from one sickle cell patient; test: Sickle cell erythropoiesis culture; HbF vs HbS flow cytometry profiles; conditions: continuous culture in 30% FCS or 10 ng/ml TGF-beta, day 7
Description: (§2) Cells are fixed with 5% formaldehyde in PBS at 37° C. for 1 h, exposed to 100% methanol for 5 min at room temperature, then permeabilized in Solution B of the Caltag Fix & Perm kit during incubation with phycoerythrin-conjugated antibodies to the gamma chain of hemoglobin (HbF) (Cortex) and fluorescein isothiocyanate-conjugated antibodies to the beta chain of hemoglobin (HbA) or to fluorescein isothiocyanate-conjugated antibodies specific for sickle cell hemoglobin (HbS) (Isolabs). After incubation, cells are washed and suspended in PBS with 1% formaldehyde and 0.1 μg/ml Hoechst 33342.
Mononuclear cells from one sickle cell patient were continuously cultured in 30% FCS or 10 ng/ml TGF-beta. The cells were labeled with the same antibodies to HbF but with antibodies specific for HbS instead of HbA.

[5] = system: F+ cells (HbF-containing nucleated red cells) in cultures of mononuclear cells from adult blood; test: Erythroid culture of adult blood mononuclear cells; proportions of F+ cells by two-color flow cytometry; remark: listed apart in the source
Description: as §2, §1
Blood samples were kept at room temperature and processed as soon as possible (between 2 h and 24 h) after collection. The blood was diluted 1:4 with phosphate buffered saline (PBS), the mononuclear cells isolated by density gradient (density 1.077), washed in PBS with 1% BSA (bovine serum albumin) and cultured without further processing in standard 6-well plates, 3-5 ml per well, at a maximum density of 0.3 million/ml. The standard medium (referred to as “control” medium) comprised a mixture of 2/3 Iscoves MDM and 1/3 RPMI1640, containing methylcellulose (0.9%), C—CHS (1%), EPO (1 U/ml), SCF (20 ng/ml), IL3 (10 ng/ml), insulin (3 μg/ml), iron-saturated transferring (70 μg/ml), mercaptoethanol ([…]). Cytokines were from R&D Systems, Minneapolis, Minn. or Genzyme, Cambridge, Mass.
A relatively brief exposure to TGF-beta during the first few days of cell culture caused a lasting shift towards HbF expression with no reduction in subsequent clonal expansion (see data below). […]
The effect of TGF-beta treatment on cell cultures was examined and compared to the effect of serum. […] On day 7, cultures containing hundreds of colonies were turned into single-cell suspensions and the correlated contents of HbA and HbF measured by flow cytometry (FIG. 1). […]

TGF-beta 3: form of transforming growth factor beta titrated against TGF-beta 1
relative potency to increase proportions of F+ cells ([1]; titration, treatment began day 2, re-seeded day 4, F+ on day 7): in between TGF-beta 1 and TGF-beta 2

TGF-beta: recombinant human transforming growth factor beta-1
effect on cytokine-dependent proliferation (secondary colony numbers) [2]: did not interfere with cytokine-dependent proliferation | N(TGF)/N(CON) of F+ cells ([3]; 2 (out of 5) experiments, proliferating beyond 3 weeks): exceeding 100 | total numbers of F-A+ cells versus control cultures ([3]; between days 7 and 10, treatment day 0-4): dramatically reduced | reduction of F-A+ cell numbers ([3]; day 7, treatment day 0-4): ca. 10 fold | F+ cell numbers, ratio N(TGF)/N(CON) ([3]; day 7, treatment day 0-4, median): 1 | F+ population level versus controls ([3]; on average, with increasing culture time, treatment day 0-4): ca. 10 fold | relative F+ cell numbers [4]: increase in relative F+ cell numbers | effect on proportions of F+ cells ([5]; 10 ng/ml, exposure day 0-4 or continuous, analysis day 7): increased the proportions of F+ cells dramatically | increased proportions of F+ cells during further culture growth ([5]; 4-day treatment, then control medium, re-seeded days 7 and 10): maintained | proportions of F+ cells, plateau ([5]; as function of exposure time (0-4 days), analysed day 7, 30% FCS or TGF-beta): 80% | total cell counts ([5]; continuous treatment up to day 7 (not the 4-day treatment)): strongly reduced total cell counts | growth of newly developing secondary colonies ([1]; added from day 7, after approximately 2 days of treatment, 8-16-cell stage): complete and lasting growth arrest | effect on F+ proportions when added at later culture phase ([1]; newly supplied beginning on day 7): no effect on F+ proportions | proportions of F+ cells after exposure for only one day ([1]; one day exposure between days 2 and 4): substantially increased

B1: TGF-beta 2: form of transforming growth factor beta titrated against TGF-beta 1 (protein, UniProt P61812 303-414, looked up)
Transforming growth factor …: ALDAAYCFRNVQDNCCLRPLYIDFKRDLGWKWIHEPKGYNANFCAGACPYLWSSDTQHSRVLSLYNTINPEASASPCCVSQDLEPLTILYYIGKTPKIEQLSNMIVKSCKCS
modifications: Transforming growth factor beta-2
relative effectiveness versus TGF-beta 1 to increase proportions of F+ cells ([1]; titration, treatment began day 2, re-seeded day 4, F+ on day 7, average of two experiments): ~100 times
